Source: PMC12148380 (iScience, 2025)
pKd: −log10 of the molar value. Where two headings read alike, the source gives them in different places. Blank lines part the entries; values can stand above or below the compound they belong to. Where a SMILES comes first, the peptide text is derived from it.

What was measured:
Test in all cases: microscale thermophoresis
Assay type in all cases: binding
[1] = molecular target: T1, orotate phosphoribosyltransferase (PyrE) (Escherichia coli, UniProt P0A7E3)
T1 sequence (P0A7E3 2-213): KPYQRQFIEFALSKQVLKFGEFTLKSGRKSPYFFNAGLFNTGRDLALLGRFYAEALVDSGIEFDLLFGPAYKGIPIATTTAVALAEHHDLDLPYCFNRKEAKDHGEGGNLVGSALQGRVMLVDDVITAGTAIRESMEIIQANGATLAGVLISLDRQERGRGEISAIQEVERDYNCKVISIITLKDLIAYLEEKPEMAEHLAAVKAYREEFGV

[2] = molecular target: T1, orotate phosphoribosyltransferase (PyrE); remark: listed apart in the source
FabF = molecular target: T2, FabF (Escherichia coli, UniProt P0AAI5)
T2 sequence (P0AAI5 2-413): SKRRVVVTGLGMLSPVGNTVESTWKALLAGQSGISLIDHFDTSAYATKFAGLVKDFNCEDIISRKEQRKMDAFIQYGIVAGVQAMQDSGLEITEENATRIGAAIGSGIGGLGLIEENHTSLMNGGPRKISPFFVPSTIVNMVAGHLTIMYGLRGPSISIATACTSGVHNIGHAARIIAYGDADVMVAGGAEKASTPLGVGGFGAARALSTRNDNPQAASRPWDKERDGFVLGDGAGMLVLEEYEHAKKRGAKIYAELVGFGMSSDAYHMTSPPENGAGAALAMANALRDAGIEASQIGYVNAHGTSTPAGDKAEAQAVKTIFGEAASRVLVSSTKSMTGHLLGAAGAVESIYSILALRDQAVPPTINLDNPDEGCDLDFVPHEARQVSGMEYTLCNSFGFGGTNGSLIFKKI

pKd [1]: 5.09
SMILES: O=P(O)(O)OC[C@H]1O[C@H](OP(=O)(O)OP(=O)(O)O)[C@H](O)[C@@H]1O [PRPP]

pKd [2]: 4.04
SMILES: Cc1cc2nc3[nH]c(=O)[nH]c(=O)c3nc2cc1C [lumichrome]

pKd (FabF): 4.85 to 4.92
SMILES: CC(C)CC(NC(=O)C(N)C(C)C)C(=O)O (stereo not drawn) [Val-Leu] (H-Val-Leu-OH; configuration not given here)
